{"source": "paper PMC8757610", "about": "“Design, synthesis, and biological evaluation of arylmethylpiperidines as Kv1.5 potassium channel inhibitors” (Journal of Enzyme Inhibition and Medicinal Chemistry, 2022)", "key": {"[1]": {"target": "hKv1.5 potassium channel (Homo sapiens, UniProt P22460)", "sequence (P22460 whole entry)": "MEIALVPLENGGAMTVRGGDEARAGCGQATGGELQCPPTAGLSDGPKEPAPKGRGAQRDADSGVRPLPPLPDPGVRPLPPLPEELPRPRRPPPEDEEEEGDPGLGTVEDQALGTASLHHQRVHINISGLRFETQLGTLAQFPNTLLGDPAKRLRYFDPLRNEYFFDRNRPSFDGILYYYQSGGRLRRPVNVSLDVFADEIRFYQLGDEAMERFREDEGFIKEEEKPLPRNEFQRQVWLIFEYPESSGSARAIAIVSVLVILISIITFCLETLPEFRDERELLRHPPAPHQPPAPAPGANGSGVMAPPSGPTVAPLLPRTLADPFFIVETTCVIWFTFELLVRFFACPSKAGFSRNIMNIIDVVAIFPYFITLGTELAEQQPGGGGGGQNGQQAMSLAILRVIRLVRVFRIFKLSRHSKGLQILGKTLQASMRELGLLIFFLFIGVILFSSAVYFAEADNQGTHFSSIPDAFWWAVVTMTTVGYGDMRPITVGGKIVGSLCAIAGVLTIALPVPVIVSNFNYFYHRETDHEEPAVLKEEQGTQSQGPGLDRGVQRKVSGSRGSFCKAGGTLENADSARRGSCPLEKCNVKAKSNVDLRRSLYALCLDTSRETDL", "assay": "Whole-cell patch clamp assay on HEK 293 cells stably expressing hKv1.5", "details": "hKv1.5 IC50, whole-cell patch clamp, HEK 293 cells expressing hKv1.5, 25 °C, mean ± SD"}, "[2]": {"system": "Kv1.5", "details": "in Figure 2, no reference given, cited from earlier work"}, "[3]": {"assay": "Single-dose pharmacokinetics study", "type": "in vivo", "details": "beagle dogs, mean ± SD, n = 6"}, "[4]": {"system": "SD rats", "assay": "CaCl2-ACh induced AF model", "type": "in vivo, rat"}, "[5]": {"system": "guinea pigs", "assay": "Preliminary safety evaluation by 12-lead electrocardiogram", "type": "in vivo"}, "[6]": {"system": "SD rats", "type": "in vivo, rat"}, "[7]": {"details": "both sexes, beagle, dog, plasma, iv, 1 mg/kg, i.v. 1.00 mg/kg"}, "[8]": {"details": "cumulative i.v. 3 × 10^−7 to 3 × 10^−5 mol/kg"}}, "note": "Structures can show the parent of a compound that is named as a salt. Where two headings read alike, the source gives them in different places.", "data": [{"smiles": "c1ccc(CCNC2CCN(Cc3nc4ccccc4o3)CC2)cc1", "note": "[DDO-02009, 1-(benzo[d]oxazol-2-ylmethyl)-N-phenethylpiperidin-4-amine hydrochloride]", "values": [{"measurement": "IC50", "setting": "[1]", "result": "> 20", "unit": "µM"}]}, {"smiles": "COc1ccc(CC(=O)NCc2ccccc2-c2ccccc2C(=O)NCCc2cccnc2)cc1", "note": "[AVE-0118]", "values": [{"measurement": "IC50", "setting": "[2]; known Kv1.5 inhibitors", "result": 1.1, "unit": "µM"}]}, {"smiles": "COc1ccc(CCO[C@@H]2CCCC[C@H]2N2CC[C@@H](O)C2)cc1OC", "note": "[Vernakalant hydrochloride]", "values": [{"measurement": "IC50", "setting": "[2]; known Kv1.5 inhibitors", "result": 13, "unit": "µM"}]}, {"smiles": "Cc1ccc(CNC2CCN(Cc3nc4ccccc4o3)CC2)cc1", "note": "[DDO-02008, 1-(benzo[d]oxazol-2-ylmethyl)-N-(4-methylbenzyl)piperidin-4-amine dihydrochloride]", "values": [{"measurement": "IC50", "setting": "[1]", "result": "> 20", "unit": "µM"}]}, {"smiles": "COc1ccccc1CNC1CCN(Cc2nc3ccccc3o2)CC1", "note": "[DDO-02007, 1-(benzo[d]oxazol-2-ylmethyl)-N-(2-methoxybenzyl)piperidin-4-amine dihydrochloride]", "values": [{"measurement": "IC50", "setting": "[1]", "result": "> 20", "unit": "µM"}]}, {"smiles": "COc1ccc(CNC2CCN(Cc3nc4ccccc4o3)CC2)cc1.Cl.Cl", "note": "[DDO-02005, 1-(benzo[d]oxazol-2-ylmethyl)-N-(4-methoxybenzyl)piperidin-4-amine dihydrochloride]", "values": [{"measurement": "CL", "setting": "[3]; i.v. 1.00 mg/kg, 1 mg/kg", "result": "97.2 ± 24", "unit": "mL/min/kg"}, {"measurement": "CL", "setting": "[3]; p.o. 1.25 mg/kg", "result": "608.5 ± 42.3", "unit": "mL/min/kg"}, {"measurement": "Cmax", "setting": "[3]; p.o. 1.25 mg/kg, 1.25 mg/kg", "result": "1.27 ± 0.40", "unit": "ng/mL"}, {"measurement": "t1/2", "setting": "[3]; p.o. 1.25 mg/kg, 1.25 mg/kg", "result": "6.25 ± 2.40", "unit": "h"}, {"measurement": "clearance", "setting": "[3]; [7]", "result": 97.2, "unit": "mL/min/kg"}, {"measurement": "half-life", "setting": "[3]; [7]", "result": "3.23 ± 1.07", "unit": "h"}, {"measurement": "Cmax", "setting": "[3]; both sexes, beagle, dog, plasma, iv, 1 mg/kg, i.v. 1.00 mg/kg, read-out: Cmax", "result": "90.2 ± 28.8", "unit": "ng/mL"}, {"measurement": "half-life", "setting": "[3]; both sexes, beagle, dog, plasma, po, 1.25 mg/kg, p.o. 1.25 mg/kg", "result": 6.25, "unit": "h"}, {"measurement": "Cmax", "setting": "[3]; both sexes, beagle, dog, plasma, po, 1.25 mg/kg, p.o. 1.25 mg/kg, read-out: Cmax", "result": 1.27, "unit": "ng/mL"}, {"measurement": "AUC(0-t)", "setting": "[3]; both sexes, dog, plasma, iv, i.v. 1.00 mg/kg", "result": "178 ± 39.3", "unit": "ng·h/mL"}, {"measurement": "AUC(0-t)", "setting": "[3]; both sexes, dog, plasma, po, p.o. 1.25 mg/kg", "result": "4.41 ± 0.69", "unit": "ng·h/mL"}, {"measurement": "atrial ERP (AERP)", "setting": "[4]; AF rats, 2.5 mg/kg i.p.", "result": "increased to normal level"}, {"measurement": "ventricle ERP (VERP)", "setting": "[4]; AF rats, 2.5 mg/kg i.p.", "result": "increased to normal level"}, {"measurement": "duration of AF", "setting": "[4]; rats, 0.625, 1.25, 2.5 mg/kg i.p., Day 4 to Day 7", "result": "shortened significantly"}, {"measurement": "AF therapeutic effect compared with dronedarone", "setting": "[4]; rats, dronedarone 1.25 mg/kg i.p. as positive control", "result": "better than that of dronedarone"}, {"measurement": "overall preliminary safety compared with Azimilide", "setting": "[5]; 12-lead electrocardiogram", "result": "safer than Azimilide"}, {"measurement": "effect on QT dispersion (QTd), compared with Azimilide", "setting": "[5]; [8]", "result": "less effect"}, {"measurement": "effect on QTcd, compared with Azimilide", "setting": "[5]; [8]", "result": "less effect"}, {"measurement": "heart rate of guinea pigs", "setting": "[5]; [8]", "result": "slowed down obviously"}, {"measurement": "heart rate, compared with Azimilide", "setting": "[5]; [8]", "result": "no statistically significant differences"}, {"measurement": "prolonging QT interval, compared with Azimilide", "setting": "[5]; [8]", "result": "no statistically significant differences"}, {"measurement": "prolonging QTc interval, compared with Azimilide", "setting": "[5]; [8]", "result": "no statistically significant differences"}, {"measurement": "IC50", "setting": "[1]", "result": "0.72 ± 0.08", "unit": "µM"}, {"measurement": "increase of aconitine required to cause arrhythmia versus model group", "setting": "[6]; 0.1 mg/kg i.v.", "result": 2, "unit": "%"}, {"measurement": "increase of aconitine required to cause arrhythmia versus model group", "setting": "[6]; 1 mg/kg i.v.", "result": 53, "unit": "%"}, {"measurement": "increase of aconitine required to cause arrhythmia versus model group", "setting": "[6]; 3 mg/kg i.v.", "result": 56, "unit": "%"}, {"measurement": "increase of aconitine required to cause arrhythmia versus model group", "setting": "[6]; 9 mg/kg i.v.", "result": 60, "unit": "%"}]}, {"smiles": "COc1ccc(NC(=O)C2CCN(Cc3nc4ccccc4o3)CC2)cc1", "note": "[DDO-02002, 1-(benzo[d]oxazol-2-ylmethyl)-N-(4-methoxyphenyl) piperidine-4-carboxamide]", "values": [{"measurement": "IC50", "setting": "[1]", "result": "8.96 ± 1.15", "unit": "µM"}, {"measurement": "melting point", "result": "190 to 194", "unit": "°C"}]}, {"smiles": "Cc1ccc(S(=O)(=O)Nc2ccccc2C(=O)N(Cc2ccccc2)Cc2cccnc2)cc1", "note": "[S-0100176]", "values": [{"measurement": "IC50", "setting": "[2]; known Kv1.5 inhibitors", "result": 0.7, "unit": "µM"}]}, {"smiles": "COc1ccc(NC(=O)C2CCN(Cc3ccccc3)CC2)cc1", "note": "[DDO-02001, 1-benzyl-N-(4-methoxyphenyl) piperidine-4-carboxamide]", "values": [{"measurement": "IC50", "setting": "[1]", "result": 17.7, "unit": "µM"}]}, {"smiles": "CS(=O)(=O)Nc1cccc([C@H](c2ccc(F)cc2)C(c2cccnc2)c2cccnc2)n1", "note": "[MK-0448]", "values": [{"measurement": "IC50", "setting": "[2]; known Kv1.5 inhibitor", "result": 0.0108, "unit": "µM"}]}, {"smiles": "Cl.Cl.c1ccc(CNC2CCN(Cc3nc4ccccc4o3)CC2)cc1", "note": "[DDO-02004, 1-(benzo[d]oxazol-2-ylmethyl)-N-benzylpiperidin-4-amine dihydrochloride]", "values": [{"measurement": "IC50", "setting": "[1]", "result": "0.95 ± 0.13", "unit": "µM"}, {"measurement": "melting point", "result": "> 250", "unit": "°C"}]}, {"smiles": "Fc1ccc(CNC2CCN(Cc3nc4ccccc4o3)CC2)cc1", "note": "[DDO-02006, 1-(benzo[d]oxazol-2-ylmethyl)-N-(4-fluorobenzyl) piperidin-4-amine dihydrochloride]", "values": [{"measurement": "IC50", "setting": "[1]", "result": "3.24 ± 0.29", "unit": "µM"}]}]}
